Source: the kinase profiling compilation of Christmann-Franck et al. (2016)

Assays:
Test in all cases: KINOMEscan competition binding
Conditions in all cases: compound 10.0 µM
BRAF (human) = BRAF (human) (UniProt P15056)
BTK (human) = BTK (human) (UniProt Q06187)
CASK (human) = CASK (human) (UniProt O14936)
CDK4 CCND3 (human) = CDK4 CCND3 (human) (UniProt P11802+P30281)
CRK2 (P.falciparum) = CRK2 (P.falciparum) (UniProt P61075)
DDR1 (human) = DDR1 (human) (UniProt Q08345)
DSTYK (human) = DSTYK (human) (UniProt Q6XUX3)
DYRK1A (human) = DYRK1A (human) (UniProt Q13627)
EGFR (human) = EGFR (human) (UniProt P00533)
[1] = tested on: EGFR (human), P00533 [746-750 del]
[2] = tested on: EGFR (human), P00533 [L861Q]
[3] = tested on: FLT3 (human), P36888 [K663Q]
GRK7 (human) = GRK7 (human) (UniProt Q8WTQ7)
HIPK3 (human) = HIPK3 (human) (UniProt Q9H422)
KIT (human) = KIT (human) (UniProt P10721)
MAP2K5 (human) = MAP2K5 (human) (UniProt Q13163)
MAP3K1 (human) = MAP3K1 (human) (UniProt Q13233)
MAP3K2 (human) = MAP3K2 (human) (UniProt Q9Y2U5)
MAP3K6 (human) = MAP3K6 (human) (UniProt O95382)
MAST1 (human) = MAST1 (human) (UniProt Q9Y2H9)
MTOR (human) = MTOR (human) (UniProt P42345)
MYLK3 (human) = MYLK3 (human) (UniProt Q32MK0)
NEK11 (human) = NEK11 (human) (UniProt Q8NG66)
NIM1 (human) = NIM1 (human) (UniProt Q8IY84)
OXSR1 (human) = OXSR1 (human) (UniProt O95747)
PI4KB (human) = PI4KB (human) (UniProt Q9UBF8)
PIK3CA (human) = PIK3CA (human) (UniProt P42336)
[4] = tested on: PIK3CA (human), P42336 [E545A]
[5] = tested on: PIK3CA (human), P42336 [H1047Y]
[6] = tested on: PIK3CA (human), P42336 [I800L]
[7] = tested on: PIK3CA (human), P42336 [Q546K]
PIP5K1C (human) = PIP5K1C (human) (UniProt O60331)
PRKCI (human) = PRKCI (human) (UniProt P41743)
PRPF4B (human) = PRPF4B (human) (UniProt Q13523)
SBK1 (human) = SBK1 (human) (UniProt Q52WX2)
SGK3 (human) = SGK3 (human) (UniProt Q96BR1)
SIK3 (human) = SIK3 (human) (UniProt Q9Y2K2)
STK38 (human) = STK38 (human) (UniProt Q15208)
STK39 (human) = STK39 (human) (UniProt Q9UEW8)
TAOK2 (human) = TAOK2 (human) (UniProt Q9UL54)

PIK3CA (human), P42336 [H1047Y], sequence (P42336 whole entry H1047Y, looked up): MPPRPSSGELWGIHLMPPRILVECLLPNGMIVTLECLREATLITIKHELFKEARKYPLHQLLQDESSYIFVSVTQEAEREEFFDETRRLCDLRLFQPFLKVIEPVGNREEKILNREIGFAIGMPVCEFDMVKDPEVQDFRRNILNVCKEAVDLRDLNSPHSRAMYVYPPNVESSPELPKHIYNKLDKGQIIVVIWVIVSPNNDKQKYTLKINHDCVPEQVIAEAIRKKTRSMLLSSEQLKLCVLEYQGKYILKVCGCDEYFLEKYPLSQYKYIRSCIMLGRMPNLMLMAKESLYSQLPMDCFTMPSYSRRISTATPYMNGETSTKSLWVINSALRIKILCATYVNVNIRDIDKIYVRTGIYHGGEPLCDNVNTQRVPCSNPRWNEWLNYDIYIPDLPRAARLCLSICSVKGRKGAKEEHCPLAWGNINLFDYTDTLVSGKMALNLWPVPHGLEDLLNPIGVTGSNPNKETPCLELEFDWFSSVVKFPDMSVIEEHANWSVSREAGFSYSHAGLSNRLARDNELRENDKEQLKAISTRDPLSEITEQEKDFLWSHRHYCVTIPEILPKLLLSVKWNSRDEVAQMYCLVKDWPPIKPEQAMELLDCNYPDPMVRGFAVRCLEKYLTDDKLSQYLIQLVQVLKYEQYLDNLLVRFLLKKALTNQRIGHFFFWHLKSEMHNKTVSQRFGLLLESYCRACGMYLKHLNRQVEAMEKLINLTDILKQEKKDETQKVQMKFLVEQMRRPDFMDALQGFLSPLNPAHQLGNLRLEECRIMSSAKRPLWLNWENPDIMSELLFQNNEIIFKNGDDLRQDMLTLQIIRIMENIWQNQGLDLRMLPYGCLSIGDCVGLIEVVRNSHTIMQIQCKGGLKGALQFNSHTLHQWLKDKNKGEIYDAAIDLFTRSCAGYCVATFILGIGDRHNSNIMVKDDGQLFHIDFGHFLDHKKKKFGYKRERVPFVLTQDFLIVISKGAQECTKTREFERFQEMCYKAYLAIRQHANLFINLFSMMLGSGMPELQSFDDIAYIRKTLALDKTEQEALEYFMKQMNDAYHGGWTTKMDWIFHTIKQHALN
MAST1 (human), sequence (Q9Y2H9 whole entry, looked up): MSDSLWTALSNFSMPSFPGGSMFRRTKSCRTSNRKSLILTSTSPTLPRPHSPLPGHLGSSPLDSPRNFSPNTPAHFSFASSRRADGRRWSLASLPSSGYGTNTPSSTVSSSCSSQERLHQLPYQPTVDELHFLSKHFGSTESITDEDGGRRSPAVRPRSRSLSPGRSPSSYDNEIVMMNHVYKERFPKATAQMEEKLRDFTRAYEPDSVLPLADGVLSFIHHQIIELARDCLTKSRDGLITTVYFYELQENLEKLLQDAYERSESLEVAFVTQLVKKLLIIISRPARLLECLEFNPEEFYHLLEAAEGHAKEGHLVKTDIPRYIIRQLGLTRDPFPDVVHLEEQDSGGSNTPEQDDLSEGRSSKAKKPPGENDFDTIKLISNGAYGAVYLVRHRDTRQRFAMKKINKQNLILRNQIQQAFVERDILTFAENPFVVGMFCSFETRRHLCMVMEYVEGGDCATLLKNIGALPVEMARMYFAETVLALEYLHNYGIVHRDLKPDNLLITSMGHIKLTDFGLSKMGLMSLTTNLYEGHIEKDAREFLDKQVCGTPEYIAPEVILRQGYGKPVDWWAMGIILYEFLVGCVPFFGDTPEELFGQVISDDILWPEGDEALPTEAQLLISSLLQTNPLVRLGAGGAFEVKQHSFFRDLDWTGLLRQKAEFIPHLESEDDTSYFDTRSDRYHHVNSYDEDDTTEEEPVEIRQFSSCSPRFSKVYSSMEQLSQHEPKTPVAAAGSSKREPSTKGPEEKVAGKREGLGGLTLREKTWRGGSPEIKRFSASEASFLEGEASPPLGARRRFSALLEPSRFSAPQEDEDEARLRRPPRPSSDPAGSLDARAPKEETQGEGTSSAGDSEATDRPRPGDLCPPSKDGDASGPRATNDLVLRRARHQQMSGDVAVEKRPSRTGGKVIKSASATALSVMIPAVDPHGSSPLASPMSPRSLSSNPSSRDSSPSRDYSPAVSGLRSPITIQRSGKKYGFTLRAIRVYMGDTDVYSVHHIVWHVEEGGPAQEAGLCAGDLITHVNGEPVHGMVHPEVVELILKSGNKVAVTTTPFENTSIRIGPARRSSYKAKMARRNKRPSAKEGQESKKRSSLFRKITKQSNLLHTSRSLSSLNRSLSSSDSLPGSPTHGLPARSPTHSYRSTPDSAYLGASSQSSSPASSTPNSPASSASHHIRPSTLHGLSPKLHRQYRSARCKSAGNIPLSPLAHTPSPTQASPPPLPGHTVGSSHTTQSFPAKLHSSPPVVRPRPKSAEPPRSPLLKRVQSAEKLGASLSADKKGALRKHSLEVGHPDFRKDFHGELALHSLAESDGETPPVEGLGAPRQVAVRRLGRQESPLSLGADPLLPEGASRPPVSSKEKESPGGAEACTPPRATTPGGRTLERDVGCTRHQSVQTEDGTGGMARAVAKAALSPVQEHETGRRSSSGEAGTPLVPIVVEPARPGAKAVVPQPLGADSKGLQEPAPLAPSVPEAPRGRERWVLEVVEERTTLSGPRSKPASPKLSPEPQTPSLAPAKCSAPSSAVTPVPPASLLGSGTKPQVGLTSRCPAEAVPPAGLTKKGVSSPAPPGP
PRKCI (human), sequence (P41743 whole entry, looked up): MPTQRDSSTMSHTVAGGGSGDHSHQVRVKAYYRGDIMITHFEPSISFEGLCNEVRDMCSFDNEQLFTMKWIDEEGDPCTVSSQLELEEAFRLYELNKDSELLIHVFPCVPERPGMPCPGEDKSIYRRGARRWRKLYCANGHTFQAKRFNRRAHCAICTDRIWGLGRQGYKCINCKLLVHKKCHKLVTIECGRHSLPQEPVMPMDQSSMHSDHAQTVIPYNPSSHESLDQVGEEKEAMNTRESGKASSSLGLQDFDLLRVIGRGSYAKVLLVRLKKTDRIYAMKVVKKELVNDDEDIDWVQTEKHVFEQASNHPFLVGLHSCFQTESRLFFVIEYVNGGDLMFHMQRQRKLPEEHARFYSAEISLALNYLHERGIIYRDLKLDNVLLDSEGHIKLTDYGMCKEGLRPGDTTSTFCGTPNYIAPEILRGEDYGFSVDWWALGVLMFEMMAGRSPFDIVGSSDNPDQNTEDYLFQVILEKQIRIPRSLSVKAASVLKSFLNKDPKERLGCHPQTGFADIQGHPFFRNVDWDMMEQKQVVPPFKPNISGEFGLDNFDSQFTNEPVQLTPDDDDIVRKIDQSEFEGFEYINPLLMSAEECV
DSTYK (human), sequence (Q6XUX3 whole entry, looked up): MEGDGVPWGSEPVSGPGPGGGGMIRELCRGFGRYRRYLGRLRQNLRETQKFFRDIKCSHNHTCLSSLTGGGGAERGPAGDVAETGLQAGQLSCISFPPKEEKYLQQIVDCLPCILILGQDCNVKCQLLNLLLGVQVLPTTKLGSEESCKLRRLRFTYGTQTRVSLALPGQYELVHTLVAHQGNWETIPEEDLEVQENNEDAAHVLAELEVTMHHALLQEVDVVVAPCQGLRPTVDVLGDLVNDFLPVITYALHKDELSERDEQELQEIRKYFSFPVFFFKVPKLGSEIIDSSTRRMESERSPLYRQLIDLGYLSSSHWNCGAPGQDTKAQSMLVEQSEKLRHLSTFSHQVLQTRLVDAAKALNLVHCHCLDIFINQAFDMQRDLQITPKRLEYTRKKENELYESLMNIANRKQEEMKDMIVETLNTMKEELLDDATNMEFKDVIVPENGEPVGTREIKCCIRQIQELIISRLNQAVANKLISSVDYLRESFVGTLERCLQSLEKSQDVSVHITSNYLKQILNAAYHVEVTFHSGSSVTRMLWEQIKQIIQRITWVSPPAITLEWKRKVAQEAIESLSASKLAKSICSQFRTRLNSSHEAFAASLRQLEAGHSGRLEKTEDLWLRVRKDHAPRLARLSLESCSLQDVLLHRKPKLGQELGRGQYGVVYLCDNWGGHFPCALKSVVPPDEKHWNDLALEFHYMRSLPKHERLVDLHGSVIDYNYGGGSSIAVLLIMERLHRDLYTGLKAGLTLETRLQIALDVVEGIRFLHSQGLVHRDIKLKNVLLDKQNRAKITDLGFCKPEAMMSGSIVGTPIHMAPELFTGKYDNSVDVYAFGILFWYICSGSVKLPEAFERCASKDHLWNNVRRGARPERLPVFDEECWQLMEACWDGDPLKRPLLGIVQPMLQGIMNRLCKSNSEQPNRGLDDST
MAP3K2 (human), sequence (Q9Y2U5 whole entry, looked up): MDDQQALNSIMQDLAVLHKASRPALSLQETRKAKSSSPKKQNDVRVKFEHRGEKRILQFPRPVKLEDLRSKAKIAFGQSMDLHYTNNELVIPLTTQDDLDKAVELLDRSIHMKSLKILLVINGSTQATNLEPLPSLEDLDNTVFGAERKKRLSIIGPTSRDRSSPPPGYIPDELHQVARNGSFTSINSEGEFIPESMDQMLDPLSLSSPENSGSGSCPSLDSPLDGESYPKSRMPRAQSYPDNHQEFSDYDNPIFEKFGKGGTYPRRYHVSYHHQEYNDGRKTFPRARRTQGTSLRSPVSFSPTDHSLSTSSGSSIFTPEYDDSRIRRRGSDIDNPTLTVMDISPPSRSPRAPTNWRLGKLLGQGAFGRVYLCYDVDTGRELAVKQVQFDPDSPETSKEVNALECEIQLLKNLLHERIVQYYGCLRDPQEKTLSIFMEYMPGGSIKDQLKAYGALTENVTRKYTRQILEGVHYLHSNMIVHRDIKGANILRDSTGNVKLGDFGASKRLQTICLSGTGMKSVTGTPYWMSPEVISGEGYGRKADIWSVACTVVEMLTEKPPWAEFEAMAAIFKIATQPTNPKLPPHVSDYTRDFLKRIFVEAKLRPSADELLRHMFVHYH
PIK3CA (human), sequence (P42336 whole entry, looked up): as the sequence (P42336 whole entry H1047Y, looked up) above, with Y1047H counted along it
PIK3CA (human), P42336 [Q546K], sequence (P42336 whole entry Q546K, looked up): as the sequence (P42336 whole entry H1047Y, looked up) above, with Q546K, Y1047H counted along it
PIK3CA (human), P42336 [E545A], sequence (P42336 whole entry E545A, looked up): as the sequence (P42336 whole entry H1047Y, looked up) above, with E545A, Y1047H counted along it
PIK3CA (human), P42336 [I800L], sequence (P42336 whole entry I800L, looked up): as the sequence (P42336 whole entry H1047Y, looked up) above, with I800L, Y1047H counted along it

Cc1ccc(NC(=O)c2cccc(C(C)(C)C#N)c2)cc1Nc1ccc2ncn(C)c(=O)c2c1
kinase still bound, per cent of control (BRAF (human)): 0%
kinase still bound, per cent of control (BTK (human)): 66%
kinase still bound, per cent of control (CASK (human)): 96%
kinase still bound, per cent of control (CDK4 CCND3 (human)): 90%
kinase still bound, per cent of control (CRK2 (P.falciparum)): 94%
kinase still bound, per cent of control (DDR1 (human)): 0%
kinase still bound, per cent of control (DSTYK (human)): 78%
kinase still bound, per cent of control (DYRK1A (human)): 79%
kinase still bound, per cent of control (EGFR (human)): 37%
kinase still bound, per cent of control [1]: 15%
kinase still bound, per cent of control [2]: 34%
kinase still bound, per cent of control [3]: 22%
kinase still bound, per cent of control (GRK7 (human)): 91%
kinase still bound, per cent of control (HIPK3 (human)): 86%
kinase still bound, per cent of control (KIT (human)): 0%
kinase still bound, per cent of control (MAP2K5 (human)): 0.7%
kinase still bound, per cent of control (MAP3K1 (human)): 76%
kinase still bound, per cent of control (MAP3K2 (human)): 88%
kinase still bound, per cent of control (MAP3K6 (human)): 100%
kinase still bound, per cent of control (MAST1 (human)): 100%
kinase still bound, per cent of control (MTOR (human)): 100%
kinase still bound, per cent of control (MYLK3 (human)): 100%
kinase still bound, per cent of control (NEK11 (human)): 94%
kinase still bound, per cent of control (NIM1 (human)): 100%
kinase still bound, per cent of control (OXSR1 (human)): 96%
kinase still bound, per cent of control (PI4KB (human)): 82%
kinase still bound, per cent of control (PIK3CA (human)): 100%
kinase still bound, per cent of control [4]: 89%
kinase still bound, per cent of control [5]: 100%
kinase still bound, per cent of control [6]: 100%
kinase still bound, per cent of control [7]: 88%
kinase still bound, per cent of control (PIP5K1C (human)): 75%
kinase still bound, per cent of control (PRKCI (human)): 100%
kinase still bound, per cent of control (PRPF4B (human)): 100%
kinase still bound, per cent of control (SBK1 (human)): 79%
kinase still bound, per cent of control (SGK3 (human)): 100%
kinase still bound, per cent of control (SIK3 (human)): 100%
kinase still bound, per cent of control (STK38 (human)): 100%
kinase still bound, per cent of control (STK39 (human)): 100%
kinase still bound, per cent of control (TAOK2 (human)): 72%
